Source: paper PMC8200523, “Designing and Development of FRET-Based Nanosensor for Real Time Analysis of N-Acetyl-5-Neuraminic Acid in Living Cells” (Frontiers in Nutrition, 2021)

What was measured:
[1] = target: T1, FLIP-SA (ECFP-SiaP-Venus); sialic acid periplasmic binding protein SiaP (Haemophilus influenzae, UniProt P44542); assay: FRET ratio ([…] nm) titration of purified ECFP-SiaP-Venus sensor; details: PBS 20 mM, pH 6.5-7.0; sensor 0.20 mg/ml; NeuAc 1 nM-1 M; text prints ~157 μM
T1 construct: SiaP without signal peptide and stop codon, inserted at KpnI site between ECFP (N-term) and Venus (C-term); His6 tag of pRSET-B; E. coli BL21(DE3), Ni-NTA
T1 sequence (P44542 24-329): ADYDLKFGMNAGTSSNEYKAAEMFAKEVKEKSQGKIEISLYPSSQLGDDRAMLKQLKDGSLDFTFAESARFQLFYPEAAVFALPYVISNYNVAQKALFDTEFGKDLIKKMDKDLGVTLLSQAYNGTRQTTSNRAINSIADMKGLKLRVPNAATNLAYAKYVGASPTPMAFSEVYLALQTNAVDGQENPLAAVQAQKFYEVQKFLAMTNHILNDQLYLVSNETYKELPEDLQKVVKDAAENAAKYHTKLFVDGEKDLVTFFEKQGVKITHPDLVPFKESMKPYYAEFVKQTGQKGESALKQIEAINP

[2] = target: FLIP-SA (ECFP-SiaP-Venus); sialic acid periplasmic binding protein SiaP (Haemophilus influenzae, UniProt P44542, D72K); details: PBS 20 mM, pH 6.5-7.0; sensor 0.20 mg/ml
FLIP-SA (ECFP-SiaP-Venus); sialic acid periplasmic binding protein SiaP (Haemophilus influenzae, UniProt P44542, D72K), sequence (P44542 24-329 D72K): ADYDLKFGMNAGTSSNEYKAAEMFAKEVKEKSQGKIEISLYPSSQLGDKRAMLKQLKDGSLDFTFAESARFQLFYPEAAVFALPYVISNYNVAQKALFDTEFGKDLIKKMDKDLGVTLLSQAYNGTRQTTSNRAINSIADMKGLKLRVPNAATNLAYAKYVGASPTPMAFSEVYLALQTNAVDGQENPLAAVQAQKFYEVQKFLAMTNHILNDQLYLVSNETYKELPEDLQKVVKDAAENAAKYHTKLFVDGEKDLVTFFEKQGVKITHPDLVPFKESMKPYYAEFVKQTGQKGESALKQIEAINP

[3] = target: FLIP-SA (ECFP-SiaP-Venus); sialic acid periplasmic binding protein SiaP (Haemophilus influenzae, UniProt P44542, E90N); details: PBS 20 mM, pH 6.5-7.0; sensor 0.20 mg/ml
FLIP-SA (ECFP-SiaP-Venus); sialic acid periplasmic binding protein SiaP (Haemophilus influenzae, UniProt P44542, E90N), sequence (P44542 24-329 E90N): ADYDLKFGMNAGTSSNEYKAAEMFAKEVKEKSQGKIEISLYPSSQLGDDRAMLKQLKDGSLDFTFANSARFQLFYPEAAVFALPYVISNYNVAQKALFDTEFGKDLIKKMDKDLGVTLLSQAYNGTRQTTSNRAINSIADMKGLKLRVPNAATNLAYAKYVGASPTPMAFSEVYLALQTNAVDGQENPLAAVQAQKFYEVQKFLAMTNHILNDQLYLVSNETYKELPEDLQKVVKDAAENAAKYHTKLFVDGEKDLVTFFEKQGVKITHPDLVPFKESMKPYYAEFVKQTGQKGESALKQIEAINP

[4] = target: FLIP-SA (ECFP-SiaP-Venus); sialic acid periplasmic binding protein SiaP (Haemophilus influenzae, UniProt P44542, R150D); details: PBS 20 mM, pH 6.5-7.0; sensor 0.20 mg/ml
FLIP-SA (ECFP-SiaP-Venus); sialic acid periplasmic binding protein SiaP (Haemophilus influenzae, UniProt P44542, R150D), sequence (P44542 24-329 R150D): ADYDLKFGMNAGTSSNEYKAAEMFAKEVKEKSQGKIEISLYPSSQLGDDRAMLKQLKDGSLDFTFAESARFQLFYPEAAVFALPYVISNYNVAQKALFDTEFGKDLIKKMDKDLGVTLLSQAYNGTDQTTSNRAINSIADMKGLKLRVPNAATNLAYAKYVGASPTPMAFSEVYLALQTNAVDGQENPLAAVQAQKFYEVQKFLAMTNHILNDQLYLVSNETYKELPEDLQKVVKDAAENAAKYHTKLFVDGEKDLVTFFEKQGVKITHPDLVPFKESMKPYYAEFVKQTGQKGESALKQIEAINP

CC(=O)N[C@H]1[C@H]([C@H](O)[C@H](O)CO)OC(O)(C(=O)O)C[C@@H]1O (stereo partly shown) [NeuAc]
Kd [1]: 157 µM
Kd [2]: 13 nM
Kd [3]: 600 µM
Kd [4]: 510 nM
